Results taken from patent publication US8680282B2, “Cyclic inhibitors of carnitine palmitoyltransferase and treating cancer” (University Health Network, priority 2007, dated 2014).

Experiments:
COLO-205 = test: Cancer cell growth inhibition, SRB assay; type: cell-based, human; conditions: SRB at Day 6; for Percentage of Growth Inhibition: COLO-205, at 10 μM, NE = no activity at 10 micromolar; for GI50: Homo sapiens, 144 h, COLO-205 (Colon), triplicate
human CPT1A = target: T1, human CPT1A (Homo sapiens, UniProt P50416); test: Human CPT1A LC/MS assay; type: biochemical; conditions: human CPT1A LC/MS assay, dose response format
T1 construct: made in house; host or cells: Saccharomyces cerevisiae (pESC-trp) or cultured mammalian cells (pCDNA3.1); mitochondrial extract
T1 sequence (P50416 1-773): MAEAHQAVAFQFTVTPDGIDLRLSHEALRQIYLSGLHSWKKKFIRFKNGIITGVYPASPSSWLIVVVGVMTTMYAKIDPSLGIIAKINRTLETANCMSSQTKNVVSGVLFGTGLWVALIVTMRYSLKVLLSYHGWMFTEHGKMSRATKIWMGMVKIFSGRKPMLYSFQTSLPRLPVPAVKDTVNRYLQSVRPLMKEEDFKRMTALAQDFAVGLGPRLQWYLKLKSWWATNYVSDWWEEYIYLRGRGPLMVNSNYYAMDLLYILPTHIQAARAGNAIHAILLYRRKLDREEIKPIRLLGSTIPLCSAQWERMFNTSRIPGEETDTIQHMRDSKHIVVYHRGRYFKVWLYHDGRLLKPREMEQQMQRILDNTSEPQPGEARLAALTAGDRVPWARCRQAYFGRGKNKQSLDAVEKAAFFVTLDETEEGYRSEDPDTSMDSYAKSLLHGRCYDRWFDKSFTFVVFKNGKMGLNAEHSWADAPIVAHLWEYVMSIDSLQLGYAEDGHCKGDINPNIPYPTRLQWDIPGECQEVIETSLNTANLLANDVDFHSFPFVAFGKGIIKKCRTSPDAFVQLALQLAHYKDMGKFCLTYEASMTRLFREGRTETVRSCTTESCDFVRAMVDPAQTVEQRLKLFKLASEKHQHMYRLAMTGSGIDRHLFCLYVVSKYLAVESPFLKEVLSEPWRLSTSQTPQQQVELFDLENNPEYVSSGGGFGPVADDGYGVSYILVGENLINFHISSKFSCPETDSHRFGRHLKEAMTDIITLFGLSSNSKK
Source text: Nucleotide sequences encoding human CPT1 enzymes were individually cloned into the yeast expression vector pESC-trp at the Cla1 (5′ terminus) and Pac1 (3′ terminus) restriction sites by PCR amplification of the open reading frame using oligonucleotide primers designed to encode the wild-type CPT1 protein sequence. Standard molecular biology techniques were used to transform and express the CPT1 proteins in the yeast Saccharomyces cerevisiae. The yeast cells were lysed by enzymatic degradation of the cell wall by Zymolase, and the mitochondria were isolated by standard biochemical techniques. The integrity of the isolated mitochondria was monitored by determining the activity of succinate dehydrogenase in the mitochondrial preparations. The mitochondrial extracts were stored at −80° C. in buffer containing 10 mM HEPES pH 7.4 and 250 mM sucrose.
Human CPT1 (A, B, C) genes were additionally cloned into the pCDNA3.1 vector individually for expression in cultured mammalian cells. Cells expressing the exogenous CPT1A were identified and grown under standard conditions. Mammalian cells were harvested, and mitochondrial extracts prepared using standard biochemical methods. The mitochondrial extracts were stored at −80° C. in buffer containing 10 mM HEPES pH 7.4 and 250 mM sucrose.
Assays were performed in 96-well plate format. Each 100 μL reaction contained 40 mM KCl, 50 mM TrisHCl pH 7.5, and 250 mM mannitol (Assay Buffer), and 1.6 μg protein of an extract, 20 μM palmitoyl-CoA, 50 μM L-carnitine, and 10 ug/mL BSA. Reactions were incubated at room temperature and stopped after 10 minutes by extraction with 200 μL of water saturated n-butanol containing myristoyl carnitine (500 nM) as an internal standard. The samples were thoroughly mixed, and the phases separated by centrifugation. Samples were prepared for analysis with a 10 fold dilution of the n-butanol phase containing the reaction product palmitoyl carnitine into a 50:50 (acetonitrile:water) solvent for analysis. 5 μL of prepared sample was separated on a Phenomenex Jupiter 5μ C4 reverse-phase column using an Agilent 1100 HPLC with a gradient from 50% acetonitrile (0.5% acetic acid) to 100% acetonitrile and quantified by detection with a Bruker Esquire 3000plus mass spectrometer. The abundance of the palmitoyl carnitine product was determined relative to the internal standard and the actual quantity of palmitoyl carnitine can be determined from a standard curve prepared using the n-butanol solution containing the internal standard.
Compounds were evaluated in two formats, a screening format, and a dose response format. The screening format was performed by adding 25 μL compound in 20% DMSO and Assay Buffer to 25 μL of extract containing […] and Assay Buffer, followed by a 10 minute incubation at room temperature. 50 μL of 40 μM palmitoyl-CoA in Assay Buffer was added to the reaction mixture, mixed and incubated for 10 minutes at room temperature. A negative control for activity was also performed where the carnitine was omitted from the reaction. A positive control for activity was also performed by omitting compound from the solution containing 20% DMSO and Assay Buffer. The reaction mixture was extracted and analyzed as described above. The inhibition by compound was determined by comparing the control relative activity to the relative activity observed in wells containing the compound. Relative activity was determined by subtracting the relative intensity (area palmitoyl carnitine/area myristoyl carnitine) observed in the negative control from the relative intensity observed in the experimental well, and dividing by the relative activity observed in the positive control.
[formula] Compound characterization by dose response format was performed using the above described assay conditions and a 16 point compound titration in 2 fold compound dilution steps. The DMSO concentration was kept constant at 20% (v/v) for all compound concentrations.

SW620 = test: Cancer cell growth inhibition, SRB assay; type: cell-based, human; design: Percentage of Growth Inhibition: scale not given here; conditions: SRB at Day 6; for Percentage of Growth Inhibition: SW620, at 10 μM, NE = no activity at 10 micromolar; for GI50: Homo sapiens, SW-620, 144 h, SW620 (Colon), triplicate

Row | SMILES | Percentage of Growth Inhibition (COLO-205) | IC50 (human CPT1A) | Percentage of Growth Inhibition (SW620) | GI50 (COLO-205) | GI50 (SW620)
1 | CCCCCCCCCCc1ccc(C(=O)NC2(CC(=O)O)CC[N+](C)(C)C2)cc1 (stereo not shown) [Example S22, 3-(Carboxymethyl)-3-(4-decylbenzamido)-1,1-dimethylpyrrolidinium 2,2,2-trifluoroacetate] | 0.08112% | 1 to 10 µM | 0.2089% |  | 
2 | C[N+]1(C)CCC(CC(=O)O)(NC(=O)c2ccc(CCc3ccccc3)o2)CC1 [Example S5, 4-(Carboxymethyl)-1,1-dimethyl-4-(5-phenethylfuran-2-carboxamido)-piperidinium 2,2,2-trifluoroacetate] | 0.1219% | 1 to 10 µM | 0.05572% |  | 
3 | CCCCCCCCc1ccc(NC(=O)NC2(CC(=O)O)CCC[NH+](C)C2)cc1 (stereo not shown) [Example S9, 3-(Carboxymethyl)-1-methyl-3-(3-(4-octylphenyl)ureido)piperidinium 2,2,2-trifluoroacetate] | 0.2852% | 10 to 100 µM | 0.04904% |  | 
4 | CCCCCc1ccc(S(=O)(=O)NC2(CC(=O)O)C[N+](C)(C)C2)cc1 [Example S29, 3-(carboxymethyl)-1,1-dimethyl-3-(4-pentylphenylsulfonamido)-azetidinium 2,2,2-trifluoroacetate] |  | 10 to 100 µM |  | 28 µM | > 77 µM
5 | CCCCCCCCc1ccc(NS(=O)(=O)NC2(CC(=O)O)CCC[N+](C)(C)C2)cc1 (stereo not shown) [Example S16, 3-(carboxymethyl)-1,1-dimethyl-3-(N-(4-octylphenyl)sulfamoylamino)-piperidinium 2,2,2-trifluoroacetate] |  | 1 to 10 µM |  | 10 µM | 20 µM
6 | CCCCCc1ccc(S(=O)(=O)NC2(CC(=O)O)CC[N+](C)(C)CC2)cc1 [Example S4, 4-(Carboxymethyl)-1,1-dimethyl-4-(4-pentylphenylsulfonamido)piperidinium 2,2,2-trifluoroacetate] |  | ≤ 1 µM |  | > 50 µM | > 50 µM
7 | CCCCCc1ccc(S(=O)(=O)NC2(CC(=O)O)CCN(C)CC2)cc1 [Example S3, 4-(carboxymethyl)-1-methyl-4-(4-pentylphenylsulfonamido)piperidinium 2,2,2-trifluoroacetate] | 0.03424% | 10 to 100 µM | 0.03948% |  | 
8 | CCCCCc1ccc(S(=O)(=O)NC2(CC(=O)O)CN(C)C2)cc1 [Example S27, 3-(carboxymethyl)-1-methyl-3-(4-pentylphenylsulfonamido)azetidinium 2,2,2-trifluoroacetate] |  | 10 to 100 µM |  |  | 
9 | CCCCCCCCc1ccc(NC(=O)NC2(CC(=O)O)CC[N+](C)(C)CC2)cc1 [Example S2, 4-(Carboxymethyl)-1,1-dimethyl-4-(3-(4-octylphenyl)ureido)piperidinium 2,2,2-trifluoroacetate] |  | 10 to 100 µM |  | 1.3 µM | 2 µM
10 | O=C(O)CC1(NC(=O)c2ccc(C#Cc3ccccc3)o2)CNC1 [Example S26, 3-(carboxymethyl)-3-(5-(phenylethynyl)furan-2-carboxamido)-azetidinium 2,2,2-trifluoroacetate] | 0.1892% | 100 to 1000 µM | 0.0551% |  | 
11 | CCCCCCCCc1ccc(NC(=O)NC2(CC(=O)O)CNC2)cc1 [Example S23, 3-(carboxymethyl)-3-(3-(4-octylphenyl)ureido)azetidinium 2,2,2-trifluoroacetate] |  | 1000 to 2500 µM |  | 35 µM | 43 µM
12 | CCCCCc1ccc(S(=O)(=O)NC2(CC(=O)O)CC[N+](C)(C)C2)cc1 (stereo not shown) [Example S20, 3-(carboxymethyl)-1,1-dimethyl-3-(4-pentylphenylsulfonamido)-pyrrolidinium 2,2,2-trifluoroacetate] | 0.3647% | 1 to 10 µM | 0.01263% |  | 
13 | CCCCCCCCc1ccc(NS(=O)(=O)NC2(CC(=O)O)CCN(C)CC2)cc1 [Example S7, 4-(carboxymethyl)-1-methyl-4-(N-(4-octylphenyl)sulfamoylamino)-piperidinium 2,2,2-trifluoroacetate] |  | 10 to 100 µM |  | 74 µM | > 50 µM
14 | CCCCCCCCc1ccc(NC(=O)NC2(CC(=O)O)CC[N+](C)(C)C2)cc1 (stereo not shown) [Example S18, 3-(carboxymethyl)-1,1-dimethyl-3-(3-(4-octylphenyl)ureido)-pyrrolidinium 2,2,2-trifluoroacetate] |  | 10 to 100 µM |  | 1.9 µM | 3.1 µM
15 | C[N+]1(C)CCC(CC(=O)O)(NC(=O)c2ccc(C#Cc3ccccc3)o2)CC1 [Example S6, 4-(Carboxymethyl)-1,1-dimethyl-4-(5-(phenylethynyl)furan-2-carboxamido)-piperidinium 2,2,2-trifluoroacetate] | 0.1543% | 100 to 1000 µM | 0.05805% |  | 
16 | CCCCCCCCc1ccc(NC(=O)NC2(CC(=O)O)C[N+](C)(C)C2)cc1 [Example S24, 3-(Carboxymethyl)-1,1-dimethyl-3-(3-(4-octylphenyl)ureido)azetidinium 2,2,2-trifluoroacetate] |  | 10 to 100 µM |  | 28 µM | 44 µM
17 | CCCCCCCCCCc1ccc(C(=O)NC2(CC(=O)O)CCN(C)C2)cc1 (stereo not shown) [Example S21, 3-(carboxymethyl)-3-(4-decylbenzamido)-1-methylpyrrolidinium 2,2,2-trifluoroacetate] | 0.02151% | 10 to 100 µM | 0.07327% |  | 
18 | CCCCCCCCc1ccc(N(C)S(=O)(=O)NC2(CC(=O)O)CCC[N+](C)(C)C2)cc1 (stereo not shown) [Example S30, 3-(carboxymethyl)-1,1-dimethyl-3-(N-methyl-N-(4-octylphenyl)-sulfamoylamino)piperidinium 2,2,2-trifluoroacetate] |  | 10 to 100 µM |  | 1.6 µM | 3.5 µM
19 | CCCCCCCCc1ccc(NS(=O)(=O)NC2(CC(=O)O)CC[N+](C)(C)CC2)cc1 [Example S8, 4-(carboxymethyl)-1,1-dimethyl-4-(N-(4-octylphenyl)sulfamoylamino)piperidinium 2,2,2-trifluoroacetate] |  | 1 to 10 µM |  | 5.3 µM | 8.4 µM
